Data: patent US10779531B2, “Insect repellent” (Kao Corporation, priority 2015, dated 2020)

Legend:
[1] = test system: carbon dioxide-sensitive sensory hair of an Asian tiger mosquito; test: Evaluation of carbon dioxide response-inhibiting effect (nerve firing recording of sensory hair); assay type: in vivo; details: fragrance 1% in paraffin oil, 15 μL on filter paper, olfactory stimulation 1 second, nerve firings relative to paraffin oil, N=1; for pest or weed control at 1 %: Aedes albopictus, 1 s, read-out: Inhibition of carbon dioxide response (%)
Protocol: (§1) Asian tiger mosquitoes grown from eggs purchased from Sumika Technoservice Corporation were used. A transparent plastic pan was filled with water to a depth of approximately 1 cm, and a filter paper on which the eggs had been deposited was put therein. The larvae were fed with tropical fish feed (TetraMin) every day. After approximately 1 week, the pupae were collected with a dropper, and transferred into a 20 mL plastic cup, and the cup was placed in a netted cage. The adults were fed with 10 mass % sucrose contained in a 25 mL plastic tube. The males and females were kept together in one cage and allowed to mate for 5 days after eclosion. After 5 days of captivity, the adults were collected with an insect aspirator and anesthetized on ice for 5 minutes, and visually sorted into males and females to collect only the females. The wings and legs were removed from each female mosquito under anesthesia, and the female mosquito was pushed onto a double-sided adhesive tape pasted on a microscope slide with the back on the tape and thus fixed thereto, and the antennae and maxillary palpi were positioned, so as to achieve the accessibility of electrodes.
A 1 mol/L aqueous solution of potassium hydroxide was injected into a 50 mL syringe, and the syringe was horizontally fixed to a magnet stand with a clamp. A tungsten wire fixed to an electrode holder was horizontally inserted into the syringe, and polished by electrolysis under microscopic observation. A current was supplied from an AC power source to the syringe through the electrode holder via crocodile clips.
The Asian tiger mosquito prepared on a microscope slide was set under a microscope, and positioned so that the antennae were at the center of the view through a ×10 objective lens. A reference electrode was inserted in the eye of the insect. A pipette for providing an olfactory stimulus was placed near the maxillary palpi, and the objective lens was replaced with a ×100 objective lens. The recording electrode was brought close to the sensory hair, and carefully inserted into the sensory hair with a micromanipulator. The peg-like shape of the carbon dioxide-sensitive sensory hair of an Asian tiger mosquito can be confirmed under microscopic observation. After insertion of the electrode into the sensory hair, the spontaneous nerve firing pattern was investigated. Carbon dioxide the concentration of which had been adjusted to 0.1% was led to an olfactory stimulation apparatus via a silicone tube to stimulate the maxillary palpi for 1 second, and the carbon dioxide response was investigated.
The concentration of each of the fragrances listed in Table 4 was adjusted to 1% with paraffin oil, and the resultant was used as a sample. On a filter paper (3 mm×50 mm) 15 μL of the sample was dropped, and the filter paper was inserted in a Pasteur pipette. The Pasteur pipette was connected to a stimulation apparatus via a plastic tube, and olfactory stimulation was performed for 1 second while the response to carbon dioxide in the air was monitored, and thus the carbon dioxide response-inhibiting effect was evaluated. The number of nerve firings in 1 second after stimulation with paraffin oil as a solvent and the number of nerve firings in 1 second after stimulation with each sample were counted, and the ratio was used for evaluation of the response-inhibiting effect (N=1). Inhibitory rate (%)=100×([number of firings after stimulation with paraffin oil−number of firings after stimulation with sample]/[[number of firings after stimulation with paraffin oil]) (Equation 2)

[2] = test system: female Asian tiger mosquitoes; test: Evaluation of inhibitory effect on seeking behavior for heat source (thermoreception-inhibiting effect); assay type: in vivo, Asian tiger mosquito; details: fragrance 0.1% in ethanol, 50 μL on sheet on plate heater, landings counted after 30 seconds of contact, relative to ethanol only; for pest or weed control at 0.1 %: Aedes albopictus, 0.5 min, read-out: Inhibitory rate for seeking for heat source (%)
Protocol: (1) Preparation of Asian Tiger Mosquitoes
as §1, with “10% by” for “10”, “mass” for “mass %”, “females.” for “females. The wings and legs were removed from each female mosquito under anesthesia, and the female mosquito was pushed onto a double-sided adhesive tape pasted on a microscope slide with the back on the tape and thus fixed thereto, and the antennae and maxillary palpi were positioned, so as to achieve the accessibility of electrodes.”
(2) Evaluation of Inhibitory Effect on Seeking Behavior for Heat Source
Approximately 150 to 200 female Asian tiger mosquitoes were transferred in a plastic cage (30×30×30 cm). To monitor the behavior of the female mosquitoes from the top of the plastic cage, the top surface of the cage was replaced with an acrylic plate. A plate heater (multi-panel heater 16 W for small animals, manufactured by Vivaria) as a heat source was provided at a corner of the cage from the outside of the mesh with an area of 5×3 cm exposed. To take a photograph of the heat source from the top surface in experiment, a video camera (manufactured by Sony Corporation) was disposed above the top surface. A sheet for application of a sample was fixed to the heat source with a double-sided adhesive tape.
The concentration of a fragrance listed in Table 1 was adjusted to 0.1% with ethanol to prepare a sample, and 50 μL of the sample or ethanol as a solvent was administered in experiment. To activate the female mosquitoes, 1% of carbon dioxide was administered from the top for 1 second, and then the heat source was brought into contact with the cage. After 30 seconds of contact, a photograph of the heat source was taken to count the number of mosquitoes attracted. The sheet used for the heat source was discarded and replaced with another sheet every time the assay was completed. In view of the influence of a sample on the mosquitoes, the number of evaluations performed for one cage was limited to (7 samples+1 control) at a maximum. The inhibitory rate relative to the number of landings with application of ethanol solvent only was calculated for one set of assays (7 samples+1 control) to determine the inhibitory effect by using the following equation. Inhibitory rate (%)=100×(1−[number of landings with application of sample]/[number of landings with application of ethanol]) (Equation 1)

[3] = test system: Adult Asian tiger mosquitoes; test: Evaluation of inhibition of seeking behavior for human arm (landings on gloved hand); assay type: in vivo, Asian tiger mosquito; details: for Total landing rate (%) / Number of landings total: sample 0.4% in ethanol on cotton-gloved hand; for Total landing rate (%): relative to number of landings with control sample (ethanol) as 100%; for Number of landings total: sum total of 1, 2 and 3 minutes; for Number of landings 1 min / Number of landings 2 min / Number of landings 3 min: sample 0.4% in ethanol, sprayed 14 times (0.6 g) on cotton-gloved hand; for Number of landings 1 min: after 1 minute; for Number of landings 2 min: after 2 minutes; for Number of landings 3 min: after 3 minutes
Text: Adult Asian tiger mosquitoes consisting of 220 females and 80 males each at 5 to 10 day old were purchased from Sumika Technoservice Corporation, and released in a 30 cm×30 cm×30 cm plastic cage (bug dorm).
The concentration of each of 2,4-dimethylcyclohex-3-ene-1-methanol (“floralol”, IFF Inc.) and octahydro-7-methyl-1,4-methanonaphthalen-6(2H)-one (“PLICATONE”, Firmenich SA) as evaluation samples was adjusted to 0.4% with ethanol. A sample containing only ethanol was used as a control.
Each of the evaluation samples and control sample was sprayed 14 times in total (0.6 g) to both sides of a hand wearing a 100% cotton glove doubly.
After application of the sample, the gloved hand was left to stand for 1 minute to volatilize ethanol, and the gloved hand with the sample applied thereto was then put in the plastic cage, and the number of mosquitoes which landed on the glove was counted every 1 minute.
The numbers of landings after 1 minute, 2 minutes, and 3 minutes, and the sum total of them were counted, and the landing rate relative to the number of landings with application of the control sample as 100% was calculated. This experiment was repeated three times.

| Structure (SMILES) | pest or weed control at 1 % [1] [%] | pest or weed control at 0.1 % [2] [%] | other results |
| --- | --- | --- | --- |
| C=CCCCCCCCCO [9-Decen-1-ol, 9-decen-1-ol] | 56 | – | – |
| CCC(=O)OCc1ccccc1 [Benzyl propionate, benzyl propionate] | 97 | – | – |
| COC(OC)C(C)c1ccccc1 (centres unmarked) [2-Phenylpropionaldehyde dimethyl acetal, 2-phenylpropionaldehyde dimethyl acetal] | – | 66.8 | – |
| O=CCOc1ccccc1 [Phenoxyacetaldehyde, phenoxyacetaldehyde] | – | 89 | – |
| O=C1CCC2CCCCC2O1 (centres unmarked) [Octahydro-2H-1-benzopyran-2-one, octahydro-2H-1-benzopyran-2-one] | – | 93.3 | – |
| CC1CC2C3CCC(C3)C2CC1=O (centres unmarked) [octahydro-7-methyl-1,4-methanonaphthalen-6(2H)-one] | – | 81.3 | Total landing rate (%) [3]: 53.3%; Number of landings total [3]: 12; Number of landings 1 min [3]: 2; Number of landings 2 min [3]: 4; Number of landings 3 min [3]: 6 |
| CCCCC1CCC(=O)O1 (centres unmarked) [γ-Octalactone, γ-octalactone] | – | – | Inhibitory rate for seeking for heat source (%) [2]: 87.4% |
| CCCCCCCCCCO [1-Decanol, 1-decanol] | 54 | – | – |
| CC1=CC(C)C(C=O)C(C)C1 (centres unmarked) [Isocyclocitral, isocyclocitral] | – | – | Inhibition of carbon dioxide response (%) [1]: 61% |
| CC(=O)OC1CCCCC1C(C)(C)C (centres unmarked) [o-tert-Butylcyclohexyl acetate, o-tert-butylcyclohexyl acetate] | 87 | – | – |
| C=CC(O)CCCCC (centres unmarked) [1-Octen-3-ol, 1-octen-3-ol] | 55 | – | – |
| CCCc1ccc(O)c(OC)c1 [2-Methoxy-4-propylphenol, 2-methoxy-4-propylphenol] | 95 | – | – |
| CC/C=C\CCOC(C)=O [cis-3-Hexenyl acetate, cis-3-hexenyl acetate] | 50 | – | – |
| CC1C(=O)c2ccccc2C1(C)C (centres unmarked) [2,3,3-Trimethyl-2H-inden-1-one, 2,3,3-trimethyl-2H-inden-1-one] | – | 76.2 | – |
| CCOC(=O)Cc1ccccc1 [Ethyl phenylacetate, ethyl phenylacetate] | 79 | – | – |
| Cc1csc(C(C)C)n1 [2-Isopropyl-4-methylthiazol, 2-isopropyl-4-methylthiazol] | 71 | – | – |

| Structure (SMILES) | pest or weed control at 1 % [1] [%] | pest or weed control at 0.1 % [2] [%] | other results |
| --- | --- | --- | --- |
| CC1=CC(C)C(CO)CC1 (centres unmarked) [2,4-Dimethylcyclohex-3-ene-1-methanol, 2,4-dimethylcyclohex-3-ene-1-methanol] | 67 | – | Total landing rate (%) [3]: 71.1%; Number of landings total [3]: 16; Number of landings 1 min [3]: 3; Number of landings 2 min [3]: 6; Number of landings 3 min [3]: 7 |
| CCCC1CC(=O)C=C(C)C1 (centres unmarked) [3-Methyl-5-propyl-2-cyclohexen-1-one, 3-methyl-5-propyl-2-cyclohexen-1-one] | – | 97.2 | – |
| CCCCCC1=C(C)CCC1=O [3-Methyl-2-pentylcyclopent-2-en-1-one, 3-methyl-2-pentylcyclopent-2-en-1-one] | 68 | – | – |
| CCCCC(CC)C(=O)OCC (centres unmarked) [Ethyl 2-ethylhexanoate, ethyl 2-ethylhexanoate] | 51 | – | – |
| CC1=CC(C)C(CO)C(C)C1 (centres unmarked) [2,4,6-Trimethyl-3-cyclohexene-1-methanol, 2,4,6-trimethyl-3-cyclohexene-1-methanol] | 61 | – | – |
| COC1CC2CC1C1CC(C=O)CC21 (centres unmarked) [octahydro-5-methoxy-4,7-methano-1H-indene-2-carboxaldehyde] | – | 89.2 | – |
| CCOC(=O)C(C)C1CCCCC1 (centres unmarked) [Ethyl 2-cyclohexylpropionate, ethyl 2-cyclohexylpropionate] | 48 | – | – |
| CC=C1CC2CC1C1CCC(=O)OC21 (centres unmarked) [9-ethylidene-3-oxatricyclo(6.2.1.0^2,7)undecan-4-one] | – | 85.9 | – |
| CCC(C)(O)CCc1ccccc1 (centres unmarked) [3-Methyl-1-phenyl-3-pentanol, 3-methyl-1-phenyl-3-pentanol] | – | 69.3 | – |
| CC1=C(C=O)C(C)(C)CC=C1 [2,6,6-trimethylcyclohexa-1,3-diene-1-carbaldehyde] | – | 91.7 | – |
| CCCCCCCCO [1-Octanol, 1-octanol] | 97 | – | – |
| Cc1ccc2ncccc2c1 [6-Methylquinoline, 6-methylquinoline] | – | 64.7 | – |
| COC(C)(C)CCCC(C)CC=O (centres unmarked) [7-Methoxy-3,7-dimethyloctanal, 7-methoxy-3,7-dimethyloctanal] | – | 72.4 | – |
| CCC/C=C/COC(C)=O [trans-2-Hexenyl acetate, trans-2-hexenyl acetate] | 48 | – | – |
| Cc1ncsc1CCO [4-Methyl-5-thiazoleethanol, 4-methyl-5-thiazoleethanol] | – | 74.5 | – |
